Columns and labels:
[1] = system: Duchenne muscular dystrophy boys; design: dose or concentration left out as unconfirmed; conditions: cited from earlier work
[2] = system: mdx; Dysf-null; Sgcg-null mice; assay: Once-weekly glucocorticoids in three murine models of muscle disease; type: in vivo, mouse; conditions: 1 mg/kg once-weekly, contrary to daily dosing
From the text: Glucocorticoid steroids are widely prescribed drugs for chronic inflammatory conditions, and their daily intake generally correlates with muscle wasting and weakness, osteoporosis, obesity and metabolic disorders. […] (Quattrocelli et al, J Clin Invest 2017; Quattrocelli et al, Am J Pathol 2017; Quattrocelli et al., JCI Insight. 2019 Dec. 19; 4(24). pii: 132402. doi: 10.1172/jci.insight.132402).

Compound	muscle disease progression [1]	muscle force and mass [2]
CC/C=C\C/C=C\C/C=C\C/C=C\C/C=C\C/C=C\CCC(=O)NCCNC(=O)c1ccccc1O [Edasalonexent]	delayed	–
CC(=O)OCC(=O)[C@@]12N=C(C)O[C@@H]1C[C@H]1[C@@H]3CCC4=CC(=O)C=C[C@]4(C)[C@H]3[C@@H](O)C[C@@]12C [deflazacort]	–	improved
